Results as given in ChEMBL document CHEMBL1123941, “Potential antisecretory antidiarrheals. 1. Alpha 2-adrenergic aromatic aminoguanidine hydrazones” (1988).
Activity calls are given as the source filed them. The calls are words filed in the database; no cut-off is given here.

Legend:
[1] = organism: Rattus norvegicus; experiment: Inhibition of cholera toxin induced intestinal fluid secretion in rat; I= Inactive; type: functional, organism-based
[2] = organism: Rattus norvegicus; experiment: Inhibition of cholera toxin induced intestinal fluid secretion in rat; type: functional; conditions: read-out: ID50 (the source's name)
[3] = organism: Oryctolagus cuniculus; experiment: Inhibition of increase in intestine potential difference caused by diarrhea-inducing secretagogues in rabbits using 'Using chamber'; Inactive; type: functional, organism-based
[4] = organism: Oryctolagus cuniculus; experiment: Inhibition of increase in intestine potential difference caused by diarrhea-inducing secretagogues in rabbits using 'Using chamber'; Active at 1.0 x 10e-6 M; type: functional, organism-based
[5] = organism: Oryctolagus cuniculus; experiment: Inhibition of increase in intestine potential difference caused by diarrhea-inducing secretagogues in rabbits using 'Using chamber'; Active 1.0x 10e-6 M; type: functional, organism-based
[6] = organism: Oryctolagus cuniculus; experiment: Inhibition of increase in intestine potential difference caused by diarrhea-inducing secretagogues in rabbits using ''Using chamber''; Active at 1.1 x 10e-5 M; type: functional, organism-based

SMILES	ID50 [1]	ED50 [2] [mg/kg]	inhibition [3]	also measured
COc1cccc2c1CCC/C2=N\N=C(N)N	inactive	–	–	–
Cc1ccc(N)cc1/C=N/N=C(N)N	inactive	–	–	–
Cc1cc(C)c(/C=N/N=C(N)N)c(C)c1	–	16.6	inactive	–
Cc1cccc(C)c1/C=N/N=C(N)N	–	1.6	–	inhibition [4]: Active at 1.0 x 10e-6 M
N=C(N)N/N=C1\CCc2ccccc21	inactive	–	–	–
Cc1ccccc1/C=N/N=C(N)N	inactive	–	inactive	–
N=C(N)N/N=C1\CCCc2ccccc21	–	30.6	inactive	–
Cc1cccc(C)c1/C=N/NC1=NCCN1	–	7.9	–	–
Cc1cc(O)cc(C)c1/C=N/N=C(N)N	–	3.4	inactive	–
Cc1c(N)cc(N)c(C)c1/C=N/N=C(N)N	inactive	–	–	–
Cc1cc(/C=N/N=C(N)N)cc(C)c1O	inactive	–	inactive	–
N=C(N)N/N=C/c1ccc2ccccc2c1	inactive	–	inactive	–
COc1cc(C)c(/C=N/N=C(N)N)c(C)c1	–	27	inactive	–
N=C(N)N/N=C/c1c(Cl)cccc1Cl [GUANABENZ]	–	1.3	–	inhibition [5]: Active
N=C(N)N/N=C/c1ccnc2ccccc12	inactive	–	inactive	–
Cc1c(N)cccc1/C=N/N=C(N)N	inactive	–	inactive	–
C/C(=N\N=C(N)N)c1c(C)cccc1C	inactive	13.3	inactive	inhibition [6]: Active at 1.1 x 10e-5 M
N=C(N)N/N=C/c1cccc2ccccc12	–	34.6	inactive	–
COc1ccc2c(c1)CCC/C2=N\N=C(N)N	–	20.5	–	–
CC1CCc2ccccc2/C1=N/N=C(N)N (stereo unspecified)	inactive	–	–	–
COc1ccc2c(c1)/C(=N/N=C(N)N)CCC2	inactive	–	–	–
